Source: patent publication US20250177481A1, “SCO-spondin-derived polypeptides for enhancing synaptic transmission” (AXOLTIS PHARMA, priority 2021, published 2025)
“And” between values parts separate entries of the source, which are not always exact repeats. Equal entries are not always repeated.

Experiments:
[1] = test system: NMDA EPSCs in hippocampal CA1 pyramidal neurons; assay: patch-clamp phase 0: sequential application of NVP-AAM077 and Ifenprodil on NMDA EPSCs; format: cell-based, C57Bl6/J mice; conditions: 3 cells, data not shown
Description: Twelve (C57Bl6/J) male mice 4-5 weeks-old were obtained from Charles River, France and housed in an animal facility. Animal care was compliant with national and local Ethics committee recommendations. Sagittal hippocampal brain slices were obtained using standard brain slicing methods (approximately 6 slices per mouse) (Knobloch et al. 2007). Mice were anesthetized with isoflurane and then decapitated. […] Acute slices (350 μm thick) were prepared using a vibratome (VT 1000S; Leica Microsystems, Bannockburn, IL). Sections were incubated in standard aCSF at room temperature for at least 1 h before recordings. […] Recordings were acquired using Clampex 10 (Molecular Devices) and analyzed with Clampfit (Molecular Devices). […] A total of 23 neurons were recorded (10 per group (phases 1 and 2) and 3 in a control phase (phase 0) as follow. In each recording session, 10 EPSCs were induced in response to Schaffer collateral stimulations. Measurements of the amplitudes (average of 10 EPCS) were assessed. Phase 0 represented a validation phase aiming at confirming that GluN2A and GluN2B were the predominant NR2 subunits involved in the EPSCs evoked by Schaffer collateral stimulation. We expected the residual current at the end of phase 0 to be minimal.

[2] = molecular target: T1, GluN2A subunit of NMDAR (isolated evoked NMDAR currents in CA1 hippocampal neurons) (Mus musculus, UniProt P35436); assay: patch-clamp phase 1: NMDAR EPSCs with GluN2B subunits blocked by Ifenprodil; format: cell-based, C57Bl6/J mice; conditions: Ifenprodil 3 μM alone; control = 100; mean of 10 cells
T1 construct: Sagittal hippocampal brain slices were obtained using standard brain slicing methods; from tissue; host or cells: acute hippocampal slices of C57Bl6/J mice, CA1 pyramidal neurons
Excerpt: (§1) Selective antagonists of GluN2A and GluN2B subunits were also used.
(§2) Twelve (C57Bl6/J) male mice 4-5 weeks-old were obtained from Charles River, France and housed in an animal facility. Animal care was compliant with national and local Ethics committee recommendations. Sagittal hippocampal brain slices were obtained using standard brain slicing methods (approximately 6 slices per mouse) (Knobloch et al. 2007). Mice were anesthetized with isoflurane and then decapitated. […]
(§3) The signal was amplified with an Axopatch 200B amplifier (Molecular Devices, Union City, CA), digitized by a Digidata 1550 interface (Molecular Devices). Recordings were acquired using Clampex 10 (Molecular Devices) and analyzed with Clampfit (Molecular Devices). […]
(§4) A total of 12 mice was dedicated to the study. A total of 23 neurons were recorded (10 per group (phases 1 and 2) and 3 in a control phase (phase 0) as follow. In each recording session, 10 EPSCs were induced in response to Schaffer collateral stimulations. Measurements of the amplitudes (average of 10 EPCS) were assessed. Phase 0 represented a validation phase aiming at confirming that GluN2A and GluN2B were the predominant NR2 subunits involved in the EPSCs evoked by Schaffer collateral stimulation. We expected the residual current at the end of phase 0 to be minimal.

[3] = test system: scopolamine-induced spatial short-term working memory deficits in mice; assay: Y-maze spontaneous alternation in the scopolamine mouse model of amnesia; format: in vivo, Swiss mice; conditions: for spontaneous alternance in Y-maze: n=6; for effect on scopolamine-induced spatial short-term working memory impairments (Y-maze): data not shown
Description: Male Swiss mice, weighing 30-35 g, from JANVIER (Saint Berthevin, France), were housed in groups with access to food and water ad libitum, except during behavioral experiments. They were kept in a temperature and humidity-controlled animal facility on a 12 h/12 h light/dark cycle (lights off at 07:[…]). Mice were numbered by marking their tail with permanent markers. All animal procedures were conducted in strict adherence to the European Union directive of Sep. 22, 2010 (2010/63/UE). In each cage (n=6 per cage), treatment regimen was the same. Animals were tested in a random and blind manner.
Donepezil (DPZ) used as positive control was administered per os at a dose of 1 mg/kg once 1 h before the YM test.
Scopolamine was administered at a dose of 0.5 mg/kg by subcutaneous injection 30 minutes before the YM session.
After administration of compounds at different timepoints all animals were tested for spontaneous alternation performance in the YM, an index of spatial working memory. The YM was designed according to Itoh and collaborators (1993) and Hiramatsu and Inoue (1999) and is made of grey polyvinylchloride. Each arm is 40-cm long, 13-cm high, 3-cm wide at the bottom, 10-cm wide at the top, and converging at an equal angle. Each mouse was placed at the end of one arm and allowed to move freely through the maze during an 8-min session. The series of arm entries, including possible returns into the same arm, were checked visually. An alternation was defined as entries into all three arms on consecutive occasions. The number of maximum alternations is therefore the total number of arm entries minus two and the percentage of alternation was calculated as (actual alternations/maximum alternations)×100. Parameters included the percentage of alternation, called memory index, and total number of arm entries, called exploration index (Maurice et al., 1996, 1988; Meunier et al., 2006; Villard et al., 2009, 2011).
Animals showing an extreme behavior (alternation percentage <20% or >90% or number of arm entries <10) would have been discarded from the calculation. No animal was discarded accordingly.

[4] = molecular target: T2, GluN2B subunit of NMDAR (isolated evoked NMDAR currents in CA1 hippocampal neurons) (Mus musculus, UniProt Q01097); assay: patch-clamp phase 2: NMDAR EPSCs with GluN2A subunits blocked by NVP-AAM077; format: cell-based, C57Bl6/J mice; conditions: NVP-AAM077 0.4 μM alone; control = 100; mean of 10 cells
T2 construct: Sagittal hippocampal brain slices were obtained using standard brain slicing methods; from tissue; host or cells: acute hippocampal slices of C57Bl6/J mice, CA1 pyramidal neurons
Excerpt: as §1, §2, §3, §4

[5] = test system: subchronic PCP-induced cognitive deficits in mice; assay: T-maze continuous alternation task in subchronic PCP mice; format: in vivo, Swiss CD-1 mice; conditions: n=10
Excerpt: Phenycyclidine (PCP) is an antagonist of NMDA receptor, its administration in healthy humans produces schizophrenia-like symptoms, therefore PCP is often used to mimic schizophrenia in rodents. […] In addition, brain samples were collected shorlty after the T-Maze test to measure the levels of cerebral biomarkers involved in synaptic plasticity.
Sixty (60) male Swiss CD-1 mice were purchased from Janvier Labs (Le Genest-Saint-Isle, France) one week before the start of the study for acclimation. Mice were group-housed (6-8 mice per Eurostandard type Ill cage) and maintained in a room with controlled temperature (21-22° C.) under a reversed 12 h/12 h light-dark cycle (lights on: 5:[…]; lights off: 05:30 am) with food and water available ad libitum. The weight of mice ranged from 25.9 and 36.4 g. […]
Nicotine used as a positive control was administered at a dose of 0.4 mg/kg intraperitoneally 30 minutes prior to the T-maze trial
After administration of compounds at different timepoints all animals were tested for continuous alternation task in the T-Maze. The T-maze apparatus was made of gray Plexiglas with a main stem (55-cm long×10-cm wide×20-cm high) and two arms (30-cm long×10-cm wide×20-cm high) positioned at a 90-degree angle relative to the main stem. A start box (15-cm long×10-cm wide) was separated from the main stem by a guillotine door. Horizontal doors were also provided to close specific arms during the force choice alternation task. The experimental protocol consisted in one single session that started with 1 “forced-choice” trial, followed by 14 “free-choice” trials (Gerlai, 1998). In the first “forced-choice” trial, the mouse was confined 5 s in the start arm and then released while either the left or right goal arm was blocked by closing the sliding door. Then, it walked through the maze, eventually entered the open goal arm, and then returned to the start position. Immediately after the mouse came back to the start position, the left or right goal door was opened (i.e. the two goal doors were opened), and the mouse could choose freely between the left and right goal arms (first “free choice trial”). The mouse was considered as entered in the arm when it placed its four paws in the arm. The opposite goal door was then closed until the animal returned to the start arm. Then, a second “free choice trial” began by the opening of the closed goal door (i.e. the two goal doors were opened), leaving the choice to the mouse to enter either into the right or the left arm. The session was considered finished as soon as 14 free-choice trials had been performed in less than 10 min, and the mouse was removed from the maze. The time needed to reach these 14 “free-choices” was recorded.
The percent of spontaneous alternations was calculated as number of spontaneous alternations divided by the number of free-choice trials, an index of spatial short-term working memory. The apparatus was cleaned between each animal using alcohol (70%). Urine and feces were removed from the maze. During the trials, animal handling and the visibility of the operator were minimized as much as possible. Animals were tested in a random and blind manner.

T1 sequence (P35436 23-1464, other chains not shown): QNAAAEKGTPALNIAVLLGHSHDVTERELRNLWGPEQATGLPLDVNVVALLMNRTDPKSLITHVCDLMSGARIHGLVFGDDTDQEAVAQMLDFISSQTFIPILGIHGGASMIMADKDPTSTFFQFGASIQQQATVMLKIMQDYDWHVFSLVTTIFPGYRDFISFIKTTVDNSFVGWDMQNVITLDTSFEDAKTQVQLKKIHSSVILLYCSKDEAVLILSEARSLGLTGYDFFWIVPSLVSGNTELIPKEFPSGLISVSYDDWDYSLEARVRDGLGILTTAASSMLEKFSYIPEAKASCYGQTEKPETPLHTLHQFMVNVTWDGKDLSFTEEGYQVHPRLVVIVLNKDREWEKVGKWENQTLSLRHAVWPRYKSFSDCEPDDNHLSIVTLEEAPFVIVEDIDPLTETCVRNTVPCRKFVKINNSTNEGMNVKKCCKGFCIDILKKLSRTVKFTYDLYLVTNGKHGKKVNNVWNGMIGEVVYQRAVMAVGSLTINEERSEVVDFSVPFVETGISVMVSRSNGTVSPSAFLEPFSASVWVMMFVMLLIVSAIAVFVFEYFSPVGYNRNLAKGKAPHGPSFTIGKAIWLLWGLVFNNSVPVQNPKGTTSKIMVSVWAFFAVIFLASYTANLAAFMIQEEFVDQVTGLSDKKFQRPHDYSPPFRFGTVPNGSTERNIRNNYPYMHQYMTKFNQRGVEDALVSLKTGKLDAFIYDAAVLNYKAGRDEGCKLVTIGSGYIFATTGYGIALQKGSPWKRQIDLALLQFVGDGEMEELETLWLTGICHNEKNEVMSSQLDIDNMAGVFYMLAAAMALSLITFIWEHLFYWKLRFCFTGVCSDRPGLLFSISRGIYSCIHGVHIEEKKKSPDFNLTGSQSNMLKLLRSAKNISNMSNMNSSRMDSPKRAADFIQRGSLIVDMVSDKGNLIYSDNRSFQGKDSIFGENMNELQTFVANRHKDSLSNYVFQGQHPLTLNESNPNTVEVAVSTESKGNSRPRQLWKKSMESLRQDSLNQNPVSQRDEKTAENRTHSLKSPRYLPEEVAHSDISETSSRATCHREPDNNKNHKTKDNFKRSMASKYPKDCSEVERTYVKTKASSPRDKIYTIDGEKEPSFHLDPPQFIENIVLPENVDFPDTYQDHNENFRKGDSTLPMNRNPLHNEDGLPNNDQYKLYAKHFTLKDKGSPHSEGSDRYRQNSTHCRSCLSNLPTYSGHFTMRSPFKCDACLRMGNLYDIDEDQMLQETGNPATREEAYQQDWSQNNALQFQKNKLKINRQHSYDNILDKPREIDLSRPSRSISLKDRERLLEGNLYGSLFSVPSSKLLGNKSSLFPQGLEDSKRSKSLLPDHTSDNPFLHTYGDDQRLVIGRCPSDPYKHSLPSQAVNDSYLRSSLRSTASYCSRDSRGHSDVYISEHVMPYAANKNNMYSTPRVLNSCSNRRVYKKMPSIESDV
T2 sequence (Q01097 27-1482, other chains not shown): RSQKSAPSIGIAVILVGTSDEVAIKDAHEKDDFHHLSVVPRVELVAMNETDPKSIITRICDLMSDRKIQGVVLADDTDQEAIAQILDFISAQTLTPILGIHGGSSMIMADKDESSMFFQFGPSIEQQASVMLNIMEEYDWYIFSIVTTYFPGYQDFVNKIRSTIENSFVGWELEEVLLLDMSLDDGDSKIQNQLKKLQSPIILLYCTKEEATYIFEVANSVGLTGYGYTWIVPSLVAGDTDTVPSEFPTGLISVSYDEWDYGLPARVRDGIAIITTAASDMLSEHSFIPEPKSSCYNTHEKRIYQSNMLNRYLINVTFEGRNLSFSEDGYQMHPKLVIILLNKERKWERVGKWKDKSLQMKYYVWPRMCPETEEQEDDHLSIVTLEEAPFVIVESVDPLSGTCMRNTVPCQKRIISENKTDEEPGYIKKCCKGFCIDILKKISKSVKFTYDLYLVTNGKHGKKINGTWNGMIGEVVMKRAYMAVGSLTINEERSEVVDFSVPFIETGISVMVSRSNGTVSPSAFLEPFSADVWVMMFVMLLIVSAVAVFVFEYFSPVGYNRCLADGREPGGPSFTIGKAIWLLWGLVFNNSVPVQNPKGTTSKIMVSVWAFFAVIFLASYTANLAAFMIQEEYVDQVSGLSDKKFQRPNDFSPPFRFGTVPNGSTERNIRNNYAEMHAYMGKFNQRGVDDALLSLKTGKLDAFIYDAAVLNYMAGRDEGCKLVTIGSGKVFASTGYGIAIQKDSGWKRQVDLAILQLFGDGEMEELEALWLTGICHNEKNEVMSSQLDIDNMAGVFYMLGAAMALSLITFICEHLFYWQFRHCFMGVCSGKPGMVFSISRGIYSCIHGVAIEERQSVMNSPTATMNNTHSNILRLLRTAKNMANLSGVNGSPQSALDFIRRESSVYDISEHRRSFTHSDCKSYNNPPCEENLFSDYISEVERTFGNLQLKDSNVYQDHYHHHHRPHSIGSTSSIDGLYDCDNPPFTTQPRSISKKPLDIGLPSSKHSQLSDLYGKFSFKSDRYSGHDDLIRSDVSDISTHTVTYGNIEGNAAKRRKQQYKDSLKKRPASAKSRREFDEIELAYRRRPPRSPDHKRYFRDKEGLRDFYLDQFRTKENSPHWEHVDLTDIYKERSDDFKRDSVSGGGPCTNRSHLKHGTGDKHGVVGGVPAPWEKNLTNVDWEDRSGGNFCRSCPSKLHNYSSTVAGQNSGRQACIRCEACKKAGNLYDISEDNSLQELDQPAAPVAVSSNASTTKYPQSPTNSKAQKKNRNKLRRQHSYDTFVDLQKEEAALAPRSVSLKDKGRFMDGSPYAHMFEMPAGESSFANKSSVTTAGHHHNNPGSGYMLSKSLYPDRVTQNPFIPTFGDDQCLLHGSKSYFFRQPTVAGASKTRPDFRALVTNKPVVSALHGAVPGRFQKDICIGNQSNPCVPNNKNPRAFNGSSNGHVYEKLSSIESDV

## CC(C(O)c1ccc(O)cc1)N1CCC(Cc2ccccc2)CC1 (stereo not shown) [Ifenprodil]
[1]; NVP-AAM077 0.4 μM + Ifenprodil 3 μM
  NMDA EPSCs amplitude: significantly decreased
[2]
  Normalized amplitude of evoked isolated NMDA excitatory postsynaptic currents: 78.74 % of control

## CN1[C@@H]2C[C@@H](OC(=O)[C@H](CO)c3ccccc3)C[C@H]1[C@@H]1O[C@@H]12 [Scopolamine, reference compound]
[3]; scopolamine 0.5 mg/kg s.c. 30 min before test, alone, control 70, mean
  spontaneous alternance in Y-maze: 45%

## C[C@H](NC(c1cccc2[nH]c(=O)c(=O)[nH]c12)P(=O)(O)O)c1ccc(Br)cc1 (stereo partly shown) [NVP-AAM077]
[1]; NVP-AAM077 0.4 μM
  NMDA EPSCs amplitude: significantly decreased
[4]
  Normalized amplitude of evoked isolated NMDA excitatory postsynaptic currents: 56.35 % of control

## CN1CCCC1c1cccnc1 (stereo not shown) [Nicotine, reference compound]
[5]; PCP + 0.4 mg/kg i.p. 30 min before trial (D14), PCP alone 30.71, control 66.43, 0.4 mg/kg
  Spontaneous alternations in T-maze: 62% and 62.14%

## c1ccc(C2(N3CCCCC3)CCCCC2)cc1 [PCP, phencyclidine, reference compound]
[5]; PCP 0.2 mg/kg s.c. twice daily D1-D11, vehicle-treated, saline control 66.43
  Spontaneous alternations in T-maze: 31% and 30.71%

## W-S-G-W-S-S-C-S-R-S-C-G [NX210] (WSGWSSCSRSCG; reduced linear form)
[3]; 15 mg/kg i.p. once 48 h before the test
  effect on scopolamine-induced spatial short-term working memory impairments (Y-maze): maintained but less pronounced
[3]; administered i.p. 2 h or 1 h before the test
  effect on scopolamine-induced spatial short-term working memory impairments (Y-maze): No effect
[3]; dose lower than 10 mg/kg i.p.
  effect on scopolamine-induced spatial short-term working memory impairments (Y-maze): No effect
[3]; i.p. once 24 h before the test, bell-shaped dose-response curve
  dose with maximum effect on scopolamine-induced memory impairments (Y-maze): 15 mg/kg
[3]; scopolamine + 10 mg/kg i.p. 24 h before test, scopolamine alone 45, control 70, 10 mg/kg
  spontaneous alternance in Y-maze: 59%
[3]; scopolamine + 15 mg/kg i.p. 24 h before test, scopolamine alone 45, control 70, 15 mg/kg
  spontaneous alternance in Y-maze: 69%
